# According to patent publication US3948899A, “α-Cyanobenzylpiperazines and a process for producing the same” (Fuji Chemical Industry Co., Ltd., priority 1973, dated 1976):
# Counter-ions that a name gives are not always drawn.
# What was measured:
# mongrel adult dogs [1] = experiment: Effects on coronary sinus out flow (thoractomized anesthetized dogs, i.v.); type: in vivo, dog
# Experimental: (§1) All experiments were conducted on male and female thoractomized mongrel adult dogs weighing about 10 Kg under anesthesia with pentobarbital sodium.
# (§2) Arterial blood pressure was measured by pressure transducer (Nippon Koden MPU-0.5) connected with the cannula inserted from exposed carotid artery into aorta. Aortic blood flow was determined by means of electromagnetic flow meter (Nippon Koden MF-5) mounted at an origin of aorta. Coronary sinus out flow and coronary sinus oxygen tension were assessed by means of electromagnetic flow meter (Nippon Koden MF-5) and Po2 Macro electrode (Beckmann Moder 160-C), respectively, using Morawitz cannulization technique. Heart rate was measured by cardiotachometer (Nippon Koden RT-2) synchronized with systolic blood pressure of aorta.
# mongrel adult dogs [2] = experiment: Effects on coronary sinus oxygen tension (thoractomized anesthetized dogs, i.v.); type: in vivo, dog
# Experimental: as §1, §2
# mongrel adult dogs [3] = experiment: Effects on aortic blood flow (thoractomized anesthetized dogs, i.v.); type: in vivo, dog
# Experimental: as §1, §2
# [4] = Acute toxicity (LD50; per os, mice); type: in vivo; details: mouse, in vivo, po, dd-0train male mice
# Experimental: 7. Acute Toxicity (See Table 7) Acute toxicity (LD50; per os, mice) was measured in dd-0train male mice.
smiles,measurement,setting,value
"COc1ccc(CN2CCNCC2)c(OC)c1OC [Vastarel F, 2,3,4 -trimethoxybenzylpiperazine dihydrochloride]","Changes(%) of basal values, coronery sinus out flow","mongrel adult dogs [1]; i.v. 0.2 mg/Kg, 1 min",+1.0%
same,"Changes(%) of basal values, coronery sinus out flow","mongrel adult dogs [1]; i.v. 0.2 mg/Kg, 5 min",0%
same,"Changes(%) of basal values, coronery sinus out flow","mongrel adult dogs [1]; i.v. 0.2 mg/Kg, 10 min",0%
same,"Changes(%) of basal values, coronery sinus out flow","mongrel adult dogs [1]; i.v. 0.2 mg/Kg, 15 min",0%
same,"Changes(%) of basal values, coronery sinus out flow","mongrel adult dogs [1]; i.v. 0.2 mg/Kg, 20 min",0%
same,"Changes(%) of basal values, coronery sinus out flow","mongrel adult dogs [1]; i.v. 0.2 mg/Kg, 25 min",0%
same,"Changes(%) of basal values, coronery sinus out flow","mongrel adult dogs [1]; i.v. 0.2 mg/Kg, 30 min",0%
same,"Changes(%) of basal values, coronery sinus out flow","mongrel adult dogs [1]; i.v. 0.2 mg/Kg, imm.",+4.0%
same,"Changes(%) of basal values, coronery sinus out flow","mongrel adult dogs [1]; i.v. 0.6 mg/Kg, 1 min",+2.5%
same,"Changes(%) of basal values, coronery sinus out flow","mongrel adult dogs [1]; i.v. 0.6 mg/Kg, 5 min",+2.5%
same,"Changes(%) of basal values, coronery sinus out flow","mongrel adult dogs [1]; i.v. 0.6 mg/Kg, 10 min",0%
same,"Changes(%) of basal values, coronery sinus out flow","mongrel adult dogs [1]; i.v. 0.6 mg/Kg, 15 min",0%
same,"Changes(%) of basal values, coronery sinus out flow","mongrel adult dogs [1]; i.v. 0.6 mg/Kg, 20 min",0%
same,"Changes(%) of basal values, coronery sinus out flow","mongrel adult dogs [1]; i.v. 0.6 mg/Kg, 25 min",0%
same,"Changes(%) of basal values, coronery sinus out flow","mongrel adult dogs [1]; i.v. 0.6 mg/Kg, 30 min",0%
same,"Changes(%) of basal values, coronery sinus out flow","mongrel adult dogs [1]; i.v. 0.6 mg/Kg, imm.",+6.0%
same,"Changes(%) of basal values, coronery sinus out flow","mongrel adult dogs [1]; i.v. 2.0 mg/Kg, 1 min",-3.0%
same,"Changes(%) of basal values, coronery sinus out flow","mongrel adult dogs [1]; i.v. 2.0 mg/Kg, 5 min",+3.0%
same,"Changes(%) of basal values, coronery sinus out flow","mongrel adult dogs [1]; i.v. 2.0 mg/Kg, 10 min",+9.0%
same,"Changes(%) of basal values, coronery sinus out flow","mongrel adult dogs [1]; i.v. 2.0 mg/Kg, 15 min",+8.0%
same,"Changes(%) of basal values, coronery sinus out flow","mongrel adult dogs [1]; i.v. 2.0 mg/Kg, 20 min",+4.0%
same,"Changes(%) of basal values, coronery sinus out flow","mongrel adult dogs [1]; i.v. 2.0 mg/Kg, 25 min",+1.0%
same,"Changes(%) of basal values, coronery sinus out flow","mongrel adult dogs [1]; i.v. 2.0 mg/Kg, 30 min",0%
same,"Changes(%) of basal values, coronery sinus out flow","mongrel adult dogs [1]; i.v. 2.0 mg/Kg, imm.",-13.0%
same,"Changes(%) of basal values, coronary sinus oxygen tension","mongrel adult dogs [2]; i.v. 0.2 mg/Kg, 1 min",+1.0%
same,"Changes(%) of basal values, coronary sinus oxygen tension","mongrel adult dogs [2]; i.v. 0.2 mg/Kg, 5 min",0%
same,"Changes(%) of basal values, coronary sinus oxygen tension","mongrel adult dogs [2]; i.v. 0.2 mg/Kg, 10 min",0%
same,"Changes(%) of basal values, coronary sinus oxygen tension","mongrel adult dogs [2]; i.v. 0.2 mg/Kg, 15 min",0%
same,"Changes(%) of basal values, coronary sinus oxygen tension","mongrel adult dogs [2]; i.v. 0.2 mg/Kg, 20 min",0%
same,"Changes(%) of basal values, coronary sinus oxygen tension","mongrel adult dogs [2]; i.v. 0.2 mg/Kg, 25 min",0%
same,"Changes(%) of basal values, coronary sinus oxygen tension","mongrel adult dogs [2]; i.v. 0.2 mg/Kg, 30 min",0%
same,"Changes(%) of basal values, coronary sinus oxygen tension","mongrel adult dogs [2]; i.v. 0.2 mg/Kg, imm.",+3.0%
same,"Changes(%) of basal values, coronary sinus oxygen tension","mongrel adult dogs [2]; i.v. 0.6 mg/Kg, 1 min",+5.5%
same,"Changes(%) of basal values, coronary sinus oxygen tension","mongrel adult dogs [2]; i.v. 0.6 mg/Kg, 5 min",+1.0%
same,"Changes(%) of basal values, coronary sinus oxygen tension","mongrel adult dogs [2]; i.v. 0.6 mg/Kg, 10 min",0%
same,"Changes(%) of basal values, coronary sinus oxygen tension","mongrel adult dogs [2]; i.v. 0.6 mg/Kg, 15 min",0%
same,"Changes(%) of basal values, coronary sinus oxygen tension","mongrel adult dogs [2]; i.v. 0.6 mg/Kg, 20 min",0%
same,"Changes(%) of basal values, coronary sinus oxygen tension","mongrel adult dogs [2]; i.v. 0.6 mg/Kg, 25 min",0%
same,"Changes(%) of basal values, coronary sinus oxygen tension","mongrel adult dogs [2]; i.v. 0.6 mg/Kg, 30 min",0%
same,"Changes(%) of basal values, coronary sinus oxygen tension","mongrel adult dogs [2]; i.v. 0.6 mg/Kg, imm.",+9.0%
same,"Changes(%) of basal values, coronary sinus oxygen tension","mongrel adult dogs [2]; i.v. 2.0 mg/Kg, 1 min",+1.5%
same,"Changes(%) of basal values, coronary sinus oxygen tension","mongrel adult dogs [2]; i.v. 2.0 mg/Kg, 5 min",+2.0%
same,"Changes(%) of basal values, coronary sinus oxygen tension","mongrel adult dogs [2]; i.v. 2.0 mg/Kg, 10 min",+5.0%
same,"Changes(%) of basal values, coronary sinus oxygen tension","mongrel adult dogs [2]; i.v. 2.0 mg/Kg, 15 min",+5.0%
same,"Changes(%) of basal values, coronary sinus oxygen tension","mongrel adult dogs [2]; i.v. 2.0 mg/Kg, 20 min",+3.0%
same,"Changes(%) of basal values, coronary sinus oxygen tension","mongrel adult dogs [2]; i.v. 2.0 mg/Kg, 25 min",+0.5%
same,"Changes(%) of basal values, coronary sinus oxygen tension","mongrel adult dogs [2]; i.v. 2.0 mg/Kg, 30 min",0%
same,"Changes(%) of basal values, coronary sinus oxygen tension","mongrel adult dogs [2]; i.v. 2.0 mg/Kg, imm.",+3.0%
same,Increase in oxygen tension,"mongrel adult dogs [2]; i.v., between 5 and 20 minutes",up to 5%
same,"Changes(%) of basal values, aortic blood flow","mongrel adult dogs [3]; i.v. 0.2 mg/Kg, 1 min",0%
same,"Changes(%) of basal values, aortic blood flow","mongrel adult dogs [3]; i.v. 0.2 mg/Kg, 5 min",0%
same,"Changes(%) of basal values, aortic blood flow","mongrel adult dogs [3]; i.v. 0.2 mg/Kg, 10 min",0%
same,"Changes(%) of basal values, aortic blood flow","mongrel adult dogs [3]; i.v. 0.2 mg/Kg, 15 min",0%
same,"Changes(%) of basal values, aortic blood flow","mongrel adult dogs [3]; i.v. 0.2 mg/Kg, 20 min",0%
same,"Changes(%) of basal values, aortic blood flow","mongrel adult dogs [3]; i.v. 0.2 mg/Kg, 25 min",0%
same,"Changes(%) of basal values, aortic blood flow","mongrel adult dogs [3]; i.v. 0.2 mg/Kg, 30 min",0%
same,"Changes(%) of basal values, aortic blood flow","mongrel adult dogs [3]; i.v. 0.2 mg/Kg, imm.",0%
same,"Changes(%) of basal values, aortic blood flow","mongrel adult dogs [3]; i.v. 0.6 mg/Kg, 1 min",+0.5%
same,"Changes(%) of basal values, aortic blood flow","mongrel adult dogs [3]; i.v. 0.6 mg/Kg, 5 min",0%
same,"Changes(%) of basal values, aortic blood flow","mongrel adult dogs [3]; i.v. 0.6 mg/Kg, 10 min",-1.0%
same,"Changes(%) of basal values, aortic blood flow","mongrel adult dogs [3]; i.v. 0.6 mg/Kg, 15 min",-1.0%
same,"Changes(%) of basal values, aortic blood flow","mongrel adult dogs [3]; i.v. 0.6 mg/Kg, 20 min",-1.0%
same,"Changes(%) of basal values, aortic blood flow","mongrel adult dogs [3]; i.v. 0.6 mg/Kg, 25 min",-1.5%
same,"Changes(%) of basal values, aortic blood flow","mongrel adult dogs [3]; i.v. 0.6 mg/Kg, 30 min",0%
same,"Changes(%) of basal values, aortic blood flow","mongrel adult dogs [3]; i.v. 0.6 mg/Kg, imm.",+1.5%
same,"Changes(%) of basal values, aortic blood flow","mongrel adult dogs [3]; i.v. 2.0 mg/Kg, 1 min",0%
same,"Changes(%) of basal values, aortic blood flow","mongrel adult dogs [3]; i.v. 2.0 mg/Kg, 5 min",+11.0%
same,"Changes(%) of basal values, aortic blood flow","mongrel adult dogs [3]; i.v. 2.0 mg/Kg, 10 min",+23.0%
same,"Changes(%) of basal values, aortic blood flow","mongrel adult dogs [3]; i.v. 2.0 mg/Kg, 15 min",+10.0%
same,"Changes(%) of basal values, aortic blood flow","mongrel adult dogs [3]; i.v. 2.0 mg/Kg, 20 min",+5.0%
same,"Changes(%) of basal values, aortic blood flow","mongrel adult dogs [3]; i.v. 2.0 mg/Kg, 25 min",+6.0%
same,"Changes(%) of basal values, aortic blood flow","mongrel adult dogs [3]; i.v. 2.0 mg/Kg, 30 min",+5.0%
same,"Changes(%) of basal values, aortic blood flow","mongrel adult dogs [3]; i.v. 2.0 mg/Kg, imm.",-78.0%
same,LD50,[4],960 mg/kg
